Values after ≈ are worked out from the molar mass of the structure shown.
Columns and labels:
[1] = Initial plasma concentration in mouse at 10 mg/kg, po; assay type: ADME, organism-based; conditions: in vivo
[2] = Cmax in mouse at 1 mg/kg, iv; assay type: ADME, organism-based; parameters: route intravenous, dose 1 mg/kg; conditions: in vivo
[3] = AUC (extrapolated) in rat at 1 mg/kg, iv; assay type: ADME, organism-based; conditions: in vivo
[4] = Induction of mitophagy in human HeLa MKYP cells treated with FCCP/oligomycin for 6 hrs and measured by FACS analysis; assay type: functional, cell-based
[5] = AUC (infinity) in rat at 10 mg/kg, po; assay type: ADME, organism-based; parameters: time infinity, route oral, dose 10 mg/kg; conditions: in vivo
[6] = Kidney concentration in mouse at 10 mg/kg, po measured at 2 hrs; assay type: ADME, organism-based; conditions: read-out: Drug uptake
[7] = Half-life in mouse at 50 mg/kg, po; assay type: ADME, organism-based; conditions: in vivo
[8] = Solubility of compound in PBS; assay type: physicochemical
[9] = Half-life in rat at 10 mg/kg, po; assay type: ADME, organism-based; conditions: in vivo
[10] = Brain concentration in mouse at 10 mg/kg, po measured at 1 hr; assay type: ADME, organism-based; conditions: read-out: Drug uptake
[11] = Plasma concentration in mouse at 10 mg/kg, po measured at 0.5 hrs; assay type: ADME, organism-based
[12] = Plasma concentration in mouse at 10 mg/kg, po measured at 2 hrs; assay type: ADME, organism-based
[13] = MRT (infinity) in mouse at 10 mg/kg, po; assay type: ADME, organism-based; conditions: in vivo
[14] = Kidney concentration in mouse at 50 mg/kg, po measured at 0.5 hrs; assay type: ADME, organism-based; conditions: read-out: Drug uptake
[15] = AUC (extrapolated) in mouse at 1 mg/kg, iv; assay type: ADME, organism-based; conditions: in vivo
[16] = Initial plasma concentration in rat at 10 mg/kg, po; assay type: ADME, organism-based; conditions: in vivo
[17] = Oral bioavailability in mouse at 10 mg/kg; assay type: ADME, organism-based; conditions: in vivo
[18] = Oral bioavailability in mouse at 50 mg/kg; assay type: ADME, organism-based; conditions: in vivo
[19] = Observed AUC in mouse 50 mg/kg, po; assay type: ADME, organism-based; parameters: dose 50 mg/kg; conditions: in vivo
[20] = MRT (infinity) in rat at 1 mg/kg, iv; assay type: ADME, organism-based; conditions: in vivo
[21] = AUC (infinity) in mouse at 10 mg/kg, po; assay type: ADME, organism-based; parameters: route oral, time infinity, dose 10 mg/kg; conditions: in vivo
[22] = AUC in mouse at 50 mg/kg, po; assay type: ADME, organism-based; parameters: dose 50 mg/kg; conditions: in vivo
[23] = Brain concentration in mouse at 50 mg/kg, po measured at 1 hr; assay type: ADME, organism-based; conditions: read-out: Drug uptake
[24] = Apparent volume of distribution in mouse at 10 mg/kg, po; assay type: ADME, organism-based; conditions: in vivo
[25] = AUC in mouse at 10 mg/kg, po; assay type: ADME, organism-based; parameters: dose 10 mg/kg; conditions: in vivo
HeLa [26] = assay: Cytotoxicity against human HeLa MKYP cells assessed as cell death at 25 uM and measured DAPI staining method assay relative to control; assay type: toxicity, cell-based
[27] = Kidney concentration in mouse at 10 mg/kg, po measured at 1 hr; assay type: ADME, organism-based; conditions: read-out: Drug uptake
[28] = Observed AUC in mouse at 1 mg/kg, iv; assay type: ADME, organism-based; parameters: dose 1 mg/kg; conditions: in vivo
[29] = Induction of mitophagy in human HeLa MKYP cells treated at 6.3 uM with FCCP/oligomycin for 6 hrs and measured by FACS analysis relative to control; assay type: functional; conditions: 6 h, 6.3 µM
[30] = Apparent volume of distribution in rat at 10 mg/kg, po; assay type: ADME, organism-based; conditions: in vivo
[31] = Brain concentration in mouse at 50 mg/kg, po measured at 0.5 hrs; assay type: ADME, organism-based; conditions: read-out: Drug uptake
[32] = Kidney concentration in mouse at 10 mg/kg, po measured at 0.5 hrs; assay type: ADME, organism-based; conditions: read-out: Drug uptake
[33] = AUC (infinity) in rat at 1 mg/kg, iv; assay type: ADME, organism-based; parameters: route intravenous, time infinity, dose 1 mg/kg; conditions: in vivo
[34] = Ratio of highest compound concentration with no observable mitotoxicity to EC50 of compound to induce mitophagy in human HeLa MKYP cells; assay type: functional
[35] = Half-life in mouse at 10 mg/kg, po; assay type: ADME, organism-based; conditions: in vivo
[36] = MRT (infinity) in mouse at 1 mg/kg, iv; assay type: ADME, organism-based; conditions: in vivo
[37] = Cmax in mouse at 50 mg/kg, po; assay type: ADME, organism-based; parameters: route oral, dose 50 mg/kg; conditions: in vivo
[38] = Cmax in mouse at 10 mg/kg, po; assay type: ADME, organism-based; parameters: route oral, dose 10 mg/kg; conditions: in vivo
[39] = Brain concentration in mouse at 50 mg/kg, po measured at 2 hrs; assay type: ADME, organism-based; conditions: read-out: Drug uptake
[40] = AUC (infinity) in mouse at 1 mg/kg, iv; assay type: ADME, organism-based; parameters: route intravenous, time infinity, dose 1 mg/kg; conditions: in vivo
[41] = Plasma concentration in mouse at 50 mg/kg, po measured at 2 hrs; assay type: ADME, organism-based
[42] = Plasma concentration in mouse at 50 mg/kg, po measured at 0.5 hrs; assay type: ADME, organism-based
[43] = Kidney concentration in mouse at 50 mg/kg, po measured at 1 hr; assay type: ADME, organism-based; conditions: read-out: Drug uptake
HeLa [44] = assay: Cytotoxicity against human HeLa MKYP cells assessed as percentage of DAPI-positive cells at 50 uM and measured by DAPI staining method; assay type: toxicity, cell-based
[45] = Plasma concentration in mouse at 10 mg/kg, po measured at 1 hr; assay type: ADME, organism-based
[46] = Kidney concentration in mouse at 50 mg/kg, po measured at 2 hrs; assay type: ADME, organism-based; conditions: read-out: Drug uptake
[47] = Brain concentration in mouse at 10 mg/kg, po measured at 0.5 hrs; assay type: ADME, organism-based; conditions: read-out: Drug uptake
[48] = Brain concentration in mouse at 10 mg/kg, po measured at 2 hrs; assay type: ADME, organism-based; conditions: read-out: Drug uptake
HeLa [49] = assay: Cytotoxicity against human HeLa MKYP cells assessed as cell death at 25 uM treated with FCCP/oliogmycin and measured DAPI staining method assay relative to control; assay type: toxicity, cell-based
[50] = Plasma concentration in mouse at 50 mg/kg, po measured at 1 hr; assay type: ADME, organism-based
[51] = AUC in mouse at 1 mg/kg, iv; assay type: ADME, organism-based; parameters: dose 1 mg/kg; conditions: in vivo

- C0 [1]: 0.5 ng/mL
- Cmax [2]: 1450 nM
- %AUCextra [3]: 2.5%
- EC50 [4]: 440 nM
- AUC [5]: 7348.4 ng·h/mL
- concentration at 2 h [6]: 893 ng/g
- half-life [7]: 3.9 h
- solubility [8]: 1 µM (≈ 0.332 µg/mL)
- t1/2 [9]: 3.7 h
- concentration at 1 h [10]: 737 ng/g
- concentration at 0.5 h [11]: 372 ng/g
- concentration at 2 h [12]: 146 ng/g
- MRT inf [13]: 17.4 h
- concentration at 0.5 h [14]: 6430 ng/g
- %AUCextra [15]: 1.1%
- C0 [16]: 2.6 ng/mL
- bioavailability [17]: 17.4%
- bioavailability [18]: 37.9%
- AUC [19]: 27.4 µM·h
- MRT inf [20]: 2 h
- AUC [21]: 803.3 ng·h/mL
- AUC [22]: 35.5 µM·h
- concentration at 1 h [23]: 6370 ng/g
- Vz [24]: 5.4 L/kg
- AUC [25]: 2.6 µM·h
- concentration at 1 h [27]: 1290 ng/g
- AUC [28]: 1.4 µM·h
- Vz [30]: 2.2 L/kg
- concentration at 0.5 h [31]: 3340 ng/g
- concentration at 0.5 h [32]: 1050 ng/g
- AUC(0-inf) [33]: 838 ng·h/mL
- t1/2 [35]: 2 h
- MRT inf [36]: 0.7 h
- Cmax [37]: 9800 nM
- Cmax [38]: 1080 nM
- concentration at 2 h [39]: 3980 ng/g
- AUC(0-inf) [40]: 487 ng·h/mL
- concentration at 2 h [41]: 1420 ng/g
- concentration at 0.5 h [42]: 1900 ng/g
- concentration at 1 h [43]: 11500 ng/g
- concentration at 1 h [45]: 276 ng/g
- concentration at 2 h [46]: 7480 ng/g
- concentration at 0.5 h [47]: 526 ng/g
- concentration at 2 h [48]: 435 ng/g
- concentration at 1 h [50]: 2080 ng/g
- AUC [51]: 1.5 µM·h
Structure (SMILES): FC(F)(F)c1cc2c(NC3CCCc4ccccc43)ncnc2[nH]1 (stereo in doubt)
- Activity (HeLa [26]): 2.59%
- Activity [29]: 55.5%
- Ratio [34]: 40.02
- Activity (HeLa [44]): 2.1%
- Activity (HeLa [49]): 10.7%
